Laboratory results as given in publication PMC7284133, “Identification and analysis of novel small molecule inhibitors of RNase E: Implications for antibacterial targeting and regulation of RNase E” (Biochemistry and Biophysics Reports, 2020).

Columns and labels:
RNase E [1] = target: T1, RNase E (Acinetobacter baumannii, UniProt A0ABX6CBI2); experiment: biochemical
T1 construct: gene rne; N-terminal domain (aa 1–544), N-terminally His10-tagged

RNase E [2] = target: T2, RNase E (Escherichia coli, UniProt P21513); experiment: FRET-based real-time RNA cleavage assay; also discontinuous PAGE assay; assay type: biochemical
T2 construct: gene rne; N-terminal domain (aa 1–529), N-terminally His10-tagged
T2 sequence (P21513 1-529): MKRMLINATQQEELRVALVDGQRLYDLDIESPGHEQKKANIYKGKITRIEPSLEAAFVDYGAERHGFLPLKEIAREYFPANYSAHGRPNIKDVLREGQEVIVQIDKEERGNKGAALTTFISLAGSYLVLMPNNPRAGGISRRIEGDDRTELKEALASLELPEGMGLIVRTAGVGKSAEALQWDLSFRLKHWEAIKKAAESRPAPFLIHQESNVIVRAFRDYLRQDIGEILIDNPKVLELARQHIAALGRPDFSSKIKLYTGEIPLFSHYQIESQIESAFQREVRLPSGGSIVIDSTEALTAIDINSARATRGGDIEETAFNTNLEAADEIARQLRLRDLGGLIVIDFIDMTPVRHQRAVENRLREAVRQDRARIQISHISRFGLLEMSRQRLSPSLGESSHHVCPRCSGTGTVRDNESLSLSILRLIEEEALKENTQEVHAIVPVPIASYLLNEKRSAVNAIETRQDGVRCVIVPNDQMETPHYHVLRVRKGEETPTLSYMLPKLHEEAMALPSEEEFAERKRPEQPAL

Compound	inhibition at 2000 µM (RNase E [1]) [%]	IC50 (RNase E [2]) [µM]
CC1=NNC(=O)C1CCC(=O)O (stereo not shown) [5′S1]	~60	2500
CC(C)c1c(O)nc(SCCC(=O)O)[nH]c1=O [AS2]	–	1900
N[C@@H]1[C@@H](O)[C@H](O)[C@@H](COP(=O)(O)O)O[C@@H]1O [AS4, glucosamine-6-phosphate]	–	2100
